In paper PMC11233931, “Remodeling tumor‐associated macrophage for anti‐cancer effects by rational design of irreversible inhibition of mitogen‐activated protein kinase‐activated protein kinase 2” (MedComm, 2024):

Columns and labels:
Assay in all cases: Eurofins kinase selectivity profile against 380 other human recombinant kinases (Table S2)
Type in all cases: biochemical
[1] = target: T1, 380 human recombinant protein kinases (Homo sapiens, UniProt O75582); settings: MSK1(h), read-out: Inhibition rate
T1 construct: purchased Eurofins (Celle Lévescault)
Method in brief: (§1)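 Outsourced panel: 380 human recombinant kinases; inhibitor tested at various concentrations; purpose: MK2 selectivity check.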

[2] = target: T2, 380 human recombinant protein kinases (Homo sapiens, UniProt P30291); settings: Wee1(h), read-out: Inhibition rate (%)
T2 construct: purchased Eurofins (Celle Lévescault)
T2 sequence (P30291 whole entry): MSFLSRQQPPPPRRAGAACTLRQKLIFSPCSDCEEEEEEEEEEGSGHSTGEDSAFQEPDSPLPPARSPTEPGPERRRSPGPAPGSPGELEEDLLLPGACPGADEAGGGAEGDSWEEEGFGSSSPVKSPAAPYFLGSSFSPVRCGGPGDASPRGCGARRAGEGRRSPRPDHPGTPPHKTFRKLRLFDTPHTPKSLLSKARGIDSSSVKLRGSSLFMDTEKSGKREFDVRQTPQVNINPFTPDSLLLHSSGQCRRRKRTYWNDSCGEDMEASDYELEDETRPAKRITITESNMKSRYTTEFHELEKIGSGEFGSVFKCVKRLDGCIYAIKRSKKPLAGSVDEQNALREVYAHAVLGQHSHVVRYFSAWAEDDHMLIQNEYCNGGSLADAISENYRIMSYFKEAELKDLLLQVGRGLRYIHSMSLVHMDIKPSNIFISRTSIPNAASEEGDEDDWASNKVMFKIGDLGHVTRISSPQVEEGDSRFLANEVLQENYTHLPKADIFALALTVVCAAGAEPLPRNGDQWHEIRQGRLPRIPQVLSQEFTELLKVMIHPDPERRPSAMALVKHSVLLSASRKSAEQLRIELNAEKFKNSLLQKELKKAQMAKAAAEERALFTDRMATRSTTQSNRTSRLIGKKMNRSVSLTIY
Method in brief: as §1

[3] = target: T3, 380 human recombinant protein kinases (Homo sapiens, UniProt P43250); settings: GRK6(h), read-out: Inhibition rate
T3 construct: purchased Eurofins (Celle Lévescault)
Method in brief: as §1

[4] = target: T4, 380 human recombinant protein kinases (Homo sapiens, UniProt P45984); settings: JNK2α2(h), read-out: Inhibition rate
T4 construct: purchased Eurofins (Celle Lévescault)
Method in brief: as §1

[5] = target: T5, 380 human recombinant protein kinases (Homo sapiens, UniProt P49760); settings: CLK2(h), read-out: Inhibition rate
T5 construct: purchased Eurofins (Celle Lévescault)
Method in brief: as §1

[6] = target: T6, 380 human recombinant protein kinases (Homo sapiens, UniProt P53355); settings: DAPK1(h), read-out: Inhibition rate
T6 construct: purchased Eurofins (Celle Lévescault)
T6 sequence (P53355 whole entry): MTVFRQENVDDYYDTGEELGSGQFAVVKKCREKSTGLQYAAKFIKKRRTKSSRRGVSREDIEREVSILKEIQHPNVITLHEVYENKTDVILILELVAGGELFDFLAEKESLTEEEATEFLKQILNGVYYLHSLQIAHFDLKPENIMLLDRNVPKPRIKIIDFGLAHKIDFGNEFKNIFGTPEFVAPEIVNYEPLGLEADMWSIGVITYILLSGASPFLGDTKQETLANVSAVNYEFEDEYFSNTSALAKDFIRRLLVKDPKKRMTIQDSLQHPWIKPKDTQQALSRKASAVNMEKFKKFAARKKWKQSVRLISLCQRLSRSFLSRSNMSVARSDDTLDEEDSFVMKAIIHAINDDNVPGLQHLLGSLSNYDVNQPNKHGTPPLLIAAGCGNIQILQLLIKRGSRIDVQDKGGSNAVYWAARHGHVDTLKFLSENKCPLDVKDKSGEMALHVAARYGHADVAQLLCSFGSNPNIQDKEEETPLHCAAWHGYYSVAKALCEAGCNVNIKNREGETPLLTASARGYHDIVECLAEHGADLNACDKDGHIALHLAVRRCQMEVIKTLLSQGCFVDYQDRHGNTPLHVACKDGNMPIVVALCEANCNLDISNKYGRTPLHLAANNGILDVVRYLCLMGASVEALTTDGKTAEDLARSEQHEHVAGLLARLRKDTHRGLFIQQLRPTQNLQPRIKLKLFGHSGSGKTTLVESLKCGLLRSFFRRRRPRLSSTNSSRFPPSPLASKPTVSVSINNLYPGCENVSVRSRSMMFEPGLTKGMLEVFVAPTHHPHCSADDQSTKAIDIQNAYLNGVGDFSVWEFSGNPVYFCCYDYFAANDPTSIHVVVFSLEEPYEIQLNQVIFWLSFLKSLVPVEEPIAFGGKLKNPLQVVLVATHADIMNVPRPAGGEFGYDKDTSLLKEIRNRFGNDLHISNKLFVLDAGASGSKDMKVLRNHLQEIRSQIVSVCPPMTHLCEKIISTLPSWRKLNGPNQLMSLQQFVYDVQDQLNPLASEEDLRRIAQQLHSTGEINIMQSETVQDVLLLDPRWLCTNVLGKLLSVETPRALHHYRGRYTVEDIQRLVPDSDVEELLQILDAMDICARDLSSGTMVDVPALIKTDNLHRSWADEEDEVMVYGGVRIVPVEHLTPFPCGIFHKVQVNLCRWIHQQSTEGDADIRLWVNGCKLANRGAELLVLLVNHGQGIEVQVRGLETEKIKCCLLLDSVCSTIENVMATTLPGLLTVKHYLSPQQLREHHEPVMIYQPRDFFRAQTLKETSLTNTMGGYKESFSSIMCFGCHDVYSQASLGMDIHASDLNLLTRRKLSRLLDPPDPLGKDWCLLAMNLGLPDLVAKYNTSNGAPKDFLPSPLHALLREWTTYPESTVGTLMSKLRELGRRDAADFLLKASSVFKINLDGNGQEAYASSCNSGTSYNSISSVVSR
Method in brief: as §1

[7] = target: T7, 380 human recombinant protein kinases (Homo sapiens, UniProt Q00536); settings: CDK16/cyclinY(h), read-out: Inhibition rate
T7 construct: purchased Eurofins (Celle Lévescault)
T7 sequence (Q00536 whole entry): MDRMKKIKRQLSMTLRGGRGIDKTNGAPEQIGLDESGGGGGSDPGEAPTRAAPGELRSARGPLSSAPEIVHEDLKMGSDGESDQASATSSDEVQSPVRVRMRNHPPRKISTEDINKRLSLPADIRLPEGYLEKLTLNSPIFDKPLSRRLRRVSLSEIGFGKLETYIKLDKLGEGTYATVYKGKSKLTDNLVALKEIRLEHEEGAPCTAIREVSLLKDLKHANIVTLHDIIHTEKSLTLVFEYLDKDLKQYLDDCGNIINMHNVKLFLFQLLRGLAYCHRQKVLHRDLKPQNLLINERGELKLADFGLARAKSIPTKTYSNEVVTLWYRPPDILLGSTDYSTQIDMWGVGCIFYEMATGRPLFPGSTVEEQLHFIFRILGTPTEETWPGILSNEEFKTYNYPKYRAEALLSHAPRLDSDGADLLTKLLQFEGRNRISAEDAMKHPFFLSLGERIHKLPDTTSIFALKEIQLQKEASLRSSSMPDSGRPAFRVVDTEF
Method in brief: as §1

[8] = target: T8, 380 human recombinant protein kinases (Homo sapiens, UniProt Q02750); settings: MEK1(h), read-out: Inhibition rate
T8 construct: purchased Eurofins (Celle Lévescault)
Method in brief: as §1

[9] = target: T9, 380 human recombinant protein kinases (Homo sapiens, UniProt Q16816); settings: PhKγ1(h), read-out: Inhibition rate
T9 construct: purchased Eurofins (Celle Lévescault)
Method in brief: as §1

[10] = target: T10, 380 human recombinant protein kinases (Homo sapiens, UniProt Q8TDC3); settings: BrSK1(h), read-out: Inhibition rate
T10 construct: purchased Eurofins (Celle Lévescault)
T10 sequence (Q8TDC3 1-778): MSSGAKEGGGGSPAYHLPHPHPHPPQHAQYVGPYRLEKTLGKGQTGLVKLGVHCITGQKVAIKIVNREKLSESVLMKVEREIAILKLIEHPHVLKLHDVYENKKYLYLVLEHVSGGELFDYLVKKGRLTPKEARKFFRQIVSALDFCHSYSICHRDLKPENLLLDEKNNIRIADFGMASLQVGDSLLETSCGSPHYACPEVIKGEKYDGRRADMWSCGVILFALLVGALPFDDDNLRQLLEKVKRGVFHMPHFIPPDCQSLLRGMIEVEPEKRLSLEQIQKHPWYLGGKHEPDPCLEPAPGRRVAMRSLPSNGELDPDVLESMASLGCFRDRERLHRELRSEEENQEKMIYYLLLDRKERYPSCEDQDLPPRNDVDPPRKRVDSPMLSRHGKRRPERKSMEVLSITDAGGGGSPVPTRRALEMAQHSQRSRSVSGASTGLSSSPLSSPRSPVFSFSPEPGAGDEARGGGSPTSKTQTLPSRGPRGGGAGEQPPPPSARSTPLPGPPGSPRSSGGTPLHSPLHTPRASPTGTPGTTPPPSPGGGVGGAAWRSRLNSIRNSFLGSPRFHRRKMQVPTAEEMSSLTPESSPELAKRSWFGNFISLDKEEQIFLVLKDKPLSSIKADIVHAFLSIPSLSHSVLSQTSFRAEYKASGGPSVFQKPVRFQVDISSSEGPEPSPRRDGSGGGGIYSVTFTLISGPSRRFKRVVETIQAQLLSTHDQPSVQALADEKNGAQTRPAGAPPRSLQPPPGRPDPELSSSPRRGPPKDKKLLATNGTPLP
Method in brief: as §1

[11] = target: T11, 380 human recombinant protein kinases (Homo sapiens, UniProt Q9BYP7); settings: WNK3(h), read-out: Inhibition rate (%)
T11 construct: purchased Eurofins (Celle Lévescault)
Method in brief: as §1

[12] = target: T12, 380 human recombinant protein kinases (Homo sapiens, UniProt Q9NQU5); settings: PAK6(h), read-out: Inhibition rate
T12 construct: purchased Eurofins (Celle Lévescault)
Method in brief: as §1

[13] = target: T13, 380 human recombinant protein kinases (Homo sapiens, UniProt Q9UPE1); settings: MSSK1(h), read-out: Inhibition rate
T13 construct: purchased Eurofins (Celle Lévescault)
T13 sequence (Q9UPE1 whole entry): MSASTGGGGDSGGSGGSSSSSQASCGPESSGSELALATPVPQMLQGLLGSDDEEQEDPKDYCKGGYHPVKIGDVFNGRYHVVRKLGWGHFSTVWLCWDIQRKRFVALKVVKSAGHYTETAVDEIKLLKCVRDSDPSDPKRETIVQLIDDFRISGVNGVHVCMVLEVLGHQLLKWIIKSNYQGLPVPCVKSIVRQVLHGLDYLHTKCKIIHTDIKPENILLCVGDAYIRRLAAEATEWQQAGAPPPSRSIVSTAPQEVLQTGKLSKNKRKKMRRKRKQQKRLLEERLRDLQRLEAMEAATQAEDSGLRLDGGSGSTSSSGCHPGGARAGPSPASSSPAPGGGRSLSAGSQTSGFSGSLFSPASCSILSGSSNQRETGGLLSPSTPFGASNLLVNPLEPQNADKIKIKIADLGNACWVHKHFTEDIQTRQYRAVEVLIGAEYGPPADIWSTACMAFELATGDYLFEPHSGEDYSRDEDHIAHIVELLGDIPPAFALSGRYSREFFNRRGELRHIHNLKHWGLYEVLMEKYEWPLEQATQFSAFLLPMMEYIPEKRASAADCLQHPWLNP
Method in brief: as §1

[14] = target: T14, 380 human recombinant protein kinases (Homo sapiens, UniProt Q9Y243); settings: PKBγ(h), read-out: Inhibition rate
T14 construct: purchased Eurofins (Celle Lévescault)
Method in brief: as §1

[15] = target: T15, 380 human recombinant protein kinases (Homo sapiens, UniProt Q9Y5S2); settings: MRCKβ(h), read-out: Inhibition rate
T15 construct: purchased Eurofins (Celle Lévescault)
T15 sequence (Q9Y5S2 whole entry): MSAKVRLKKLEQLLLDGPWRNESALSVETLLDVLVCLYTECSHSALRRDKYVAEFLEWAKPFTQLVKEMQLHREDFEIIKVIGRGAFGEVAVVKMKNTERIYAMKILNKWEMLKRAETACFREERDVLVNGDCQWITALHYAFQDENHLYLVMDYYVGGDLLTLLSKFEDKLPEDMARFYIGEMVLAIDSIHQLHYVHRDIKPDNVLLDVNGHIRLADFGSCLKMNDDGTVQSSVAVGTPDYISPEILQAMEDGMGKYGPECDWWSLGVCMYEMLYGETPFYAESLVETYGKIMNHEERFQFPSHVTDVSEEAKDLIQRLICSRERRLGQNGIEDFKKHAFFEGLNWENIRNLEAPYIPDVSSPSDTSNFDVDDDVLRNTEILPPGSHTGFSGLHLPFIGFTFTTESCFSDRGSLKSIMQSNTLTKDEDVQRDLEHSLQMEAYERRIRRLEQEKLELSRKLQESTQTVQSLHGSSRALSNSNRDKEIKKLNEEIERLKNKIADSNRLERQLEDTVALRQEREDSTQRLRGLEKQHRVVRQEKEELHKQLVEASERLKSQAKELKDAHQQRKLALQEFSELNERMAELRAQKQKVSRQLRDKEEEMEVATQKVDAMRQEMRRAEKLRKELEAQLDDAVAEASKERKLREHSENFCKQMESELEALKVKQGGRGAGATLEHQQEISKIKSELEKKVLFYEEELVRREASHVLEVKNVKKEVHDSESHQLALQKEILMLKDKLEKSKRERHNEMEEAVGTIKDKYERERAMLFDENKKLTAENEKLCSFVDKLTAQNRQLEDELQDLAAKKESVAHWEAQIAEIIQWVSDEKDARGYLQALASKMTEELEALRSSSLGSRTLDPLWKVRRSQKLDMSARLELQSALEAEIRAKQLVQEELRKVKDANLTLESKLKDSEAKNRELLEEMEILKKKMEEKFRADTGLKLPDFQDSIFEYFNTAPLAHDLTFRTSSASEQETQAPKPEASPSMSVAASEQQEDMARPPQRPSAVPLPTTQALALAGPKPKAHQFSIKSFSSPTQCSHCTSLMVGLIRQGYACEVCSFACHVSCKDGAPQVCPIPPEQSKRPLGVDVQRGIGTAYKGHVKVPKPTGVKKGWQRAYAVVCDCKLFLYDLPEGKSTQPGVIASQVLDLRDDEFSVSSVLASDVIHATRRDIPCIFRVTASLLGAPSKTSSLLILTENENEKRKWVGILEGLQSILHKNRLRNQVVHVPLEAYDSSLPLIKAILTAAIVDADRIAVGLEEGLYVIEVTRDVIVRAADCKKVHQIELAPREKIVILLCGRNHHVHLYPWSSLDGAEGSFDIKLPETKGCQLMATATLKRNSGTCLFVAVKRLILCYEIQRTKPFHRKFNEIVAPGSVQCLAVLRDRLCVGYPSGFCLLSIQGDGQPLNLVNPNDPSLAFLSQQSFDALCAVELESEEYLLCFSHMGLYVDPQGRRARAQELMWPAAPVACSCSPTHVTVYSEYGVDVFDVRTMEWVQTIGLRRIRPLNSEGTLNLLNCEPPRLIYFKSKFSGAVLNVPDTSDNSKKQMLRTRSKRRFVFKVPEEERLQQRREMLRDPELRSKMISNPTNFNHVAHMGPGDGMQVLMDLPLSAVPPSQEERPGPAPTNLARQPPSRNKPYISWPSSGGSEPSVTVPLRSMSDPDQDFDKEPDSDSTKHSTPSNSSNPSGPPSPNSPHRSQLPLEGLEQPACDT
Method in brief: as §1

## C=CC(=O)Nc1cc(-c2cc(-c3cc4c([nH]3)CCNC4=O)ccn2)ccc1OC(F)(F)F [compound 11]
[1]; 10 nM
  inhibition at 0.01 µM: -11%
[1]; 100 nM
  inhibition at 0.1 µM: -12%
[1]; 1000 nM
  inhibition at 1 µM: -11%
[2]; 10 nM
  inhibition at 0.01 µM: -11%
[2]; 100 nM
  inhibition at 0.1 µM: -11%
[2]; 1000 nM
  inhibition at 1 µM: -4%
[3]; 10 nM
  inhibition at 0.01 µM: -1%
[3]; 100 nM
  inhibition at 0.1 µM: -1%
[3]; 1000 nM
  inhibition at 1 µM: 1%
[4]; 10 nM
  inhibition at 0.01 µM: -6%
[4]; 100 nM
  inhibition at 0.1 µM: 5%
[4]; 1000 nM
  inhibition at 1 µM: 23%
[5]; 10 nM
  inhibition at 0.01 µM: 1%
[5]; 100 nM
  inhibition at 0.1 µM: 10%
[5]; 1000 nM
  inhibition at 1 µM: 42%
[6]; 10 nM
  inhibition at 0.01 µM: 2%
[6]; 100 nM
  inhibition at 0.1 µM: 5%
[6]; 1000 nM
  inhibition at 1 µM: 12%
[7]; 10 nM
  inhibition at 0.01 µM: -1%
[7]; 100 nM
  inhibition at 0.1 µM: 7%
[7]; 1000 nM
  inhibition at 1 µM: -13%
[8]; 10 nM
  inhibition at 0.01 µM: -12%
[8]; 100 nM
  inhibition at 0.1 µM: -4%
[8]; 1000 nM
  inhibition at 1 µM: -8%
[9]; 10 nM
  inhibition at 0.01 µM: -3%
[9]; 100 nM
  inhibition at 0.1 µM: -3%
[9]; 1000 nM
  inhibition at 1 µM: 2%
[10]; 10 nM
  inhibition at 0.01 µM: -7%
[10]; 100 nM
  inhibition at 0.1 µM: -3%
[10]; 1000 nM
  inhibition at 1 µM: 17%
[11]; 10 nM
  inhibition at 0.01 µM: 0%
[11]; 100 nM
  inhibition at 0.1 µM: 7%
[11]; 1000 nM
  inhibition at 1 µM: 9%
[12]; 10 nM
  inhibition at 0.01 µM: -2%
[12]; 100 nM
  inhibition at 0.1 µM: -5%
[12]; 1000 nM
  inhibition at 1 µM: -2%
[13]; 10 nM
  inhibition at 0.01 µM: -7%
[13]; 100 nM
  inhibition at 0.1 µM: -4%
[13]; 1000 nM
  inhibition at 1 µM: 0%
[14]; 10 nM
  inhibition at 0.01 µM: 0%
[14]; 100 nM
  inhibition at 0.1 µM: 3%
[14]; 1000 nM
  inhibition at 1 µM: 9%
[15]; 10 nM
  inhibition at 0.01 µM: 8%
[15]; 100 nM
  inhibition at 0.1 µM: 0%
[15]; 1000 nM
  inhibition at 1 µM: 10%
